Experimental data reported in patent US20200222474A1, “COMPOSITIONS AND METHODS FOR INCREASING PHYTOCHEMICAL BIOAVAILABLITY AND BIOACTIVITY” (North Carolina State University, priority 2017, published 2020).

Legend:
L. acidophilus NCFM [1] = assay: Growth of L. acidophilus NCFM on plant glycosides as single carbon source (OD600); format: cell-based, Lactobacillus acidophilus; details: for OD600 max: single carbon source, 200 μl cultures, 96 microtitre plates, corrected for medium without carbon source
Procedure: (§1) For initial growth and gene expression studies, L. acidophilus NCFM was propagated three times in semi-defined medium (SDM) supplemented with either 1% or 0,5% (w/v) of the plant glycoside or carbohydrate (Table 1). For the RNA-seq analysis, cells were harvested by centrifugation (3,220×10 min, 25° C.) in the mid-exponential phase (OD600=0.6-0.8) and stored at −80° C. for subsequent RNA isolation. For the mass spectrometry metabolite analyses, 200 μt samples were taken at 0, 3, 6, 9, 12, and 24 hours of growth; cells were removed by centrifugation; and supernatants were stored at −80° C. for further analysis.
(§2) Phenotypic growth assays were performed using 1% (v/v) overnight cultures of L. acidophilus strains (Table 2) and other Lactobacillus species (Table 3) grown on SDM supplemented with 1% (w/v) glucose to inoculate 200 μL of SDM supplemented with 1% (w/v) of the examined carbohydrate (0.5% in the case of esculin) in 96-well microplate wells (Corning Costar, Corning, N.Y., USA) in duplicate or triplicate wells, respectively. The microplates were sealed with clear adhesive film, incubated at 37° C. in a Fluostar Optima microplate reader (BMG Labtech, Cary, N.C., USA), and the cell optical density (OD600) was monitored for 30 hours.
The growth of L. acidophilus NCFM was evaluated on twelve chemically diverse, nutritionally relevant and/or therapeutically active PGs 1; Table 1). FIG. 1A provides the structures and common sources of plant glycoside substrates described herein. The compounds that support growth of Lactobacillus acidophilus are in green. RI: β-D-Glcp; R2: Gentiobioside (β-D-Glcp-(1,6)-D-Glcp); R3: Rutinoside (α-L-Rhaf-(1,6)-D-Glcp). The graph in FIG. 1B depicts plant glycoside utilization analyzed by mass spectrometry and the growth as the maximum OD600. Due to the low solubility of polydatin, OD600 cannot be used as a growth metric and utilization of this compound is confirmed by the production of lactate as well as a high utilization level based on the metabolite analysis.

L. acidophilus NCFM [2] = assay: Plant glycoside uptake and metabolite analysis of L. acidophilus NCFM culture supernatants by UHPLC-DAD-Q-TOF-MS; format: cell-based, Lactobacillus acidophilus; details: qualitative: depletion of the plant glycoside and/or appearance of its metabolites
Procedure: as §1
Analysis of plant glycoside uptake from L. acidophilus NCFM culture supernatants using mass spectrometry. The supernatants of L. acidophilus NCFM cultures grown on amygdalin, arbutin, esculin or salicin as carbon sources were analyzed during 24 hours by ultra-high performance liquid chromatography-diode array detection-quadruple time of flight mass spectrometry (UHPLC-DAD-Q-TOF-MS). Samples were diluted 1:20 (v/v) with methanol and an injection volume of […] was used. Separation was carried out on an Agilent Poroshell 120 phenyl-hexyl column (2.1×150 mm, 2.7 μm) using the Agilent Infinity 1290 UHPLC system (Agilent Technologies, Santa Clara, Calif., USA) equipped with a UV/vis spectrum diode array detector. Separation was performed at 0.35 mL min-1., 60° C. with a linear gradient consisting of water (A) and acetonitrile (B) both buffered with 20 mM formic acid, starting at 10% B and increased to 100% in 15 min where it was held for 2 min, returned to 10% in 0.1 min and kept for 3 min. MS detection was performed on an Agilent 6550 iFunnel QTOF MS equipped with Agilent Dual Jet Stream electrospray ion source with the drying gas temperature of 160° C. and gas flow of 13 L min^−1, whereas the sheath gas temperature was 300° C. and flow was 16 L min-1. Ionization was conducted in ESI-mode with capillary voltage set to 4000 V and nozzle voltage to 500 V. Mass spectra were recorded as centroid data for m/z 85-1700 in MS mode with an acquisition rate of 10 spectra s^−1. To avoid carry-over, the needle seat was back-flushed for 15 s at 4 mL min-1 with each of: i) isopropanol: 0.2% ammonium hydroxide (w/v) in water (1:1 v/v); ii) acetonitrile with 2% formic acid (w/v); iii) water with 2% formic acid. Data was processed with the Agilent Mass Hunter Qualitative Analysis B.07.00 software package (Agilent Technologies) and molar concentrations were obtained from standard curves of the plant glycosides and their main metabolites. Targeted compound searches were performed using lists of previously identified compounds plus standard chemical modifications.

[3] = tested on: L. reuteri (ATCC 23272, DSM 20016); assay: Phenotypic growth assay (OD600); format: cell-based; details: SDM + 1% (w/v) carbohydrate (0.5% esculin), 37° C., 30 hours; corrected to medium without carbohydrate
Procedure: as §2

[4] = tested on: L. crispatus ATCC 33820, DSM 20584; assay: Phenotypic growth assay (OD600); format: cell-based; details: SDM + 1% (w/v) carbohydrate (0.5% esculin), 37° C., 30 hours; corrected to medium without carbohydrate
Procedure: as §2

[5] = tested on: L. rhanmosus GG (ATCC 53103); assay: Phenotypic growth assay (OD600); format: cell-based; details: SDM + 1% (w/v) carbohydrate (0.5% esculin), 37° C., 30 hours; corrected to medium without carbohydrate
Procedure: as §2

[6] = tested on: L. plantarum sp. plantarum ATCC 14917, LA70; assay: Phenotypic growth assay (OD600); format: cell-based; details: SDM + 1% (w/v) carbohydrate (0.5% esculin), 37° C., 30 hours; corrected to medium without carbohydrate
Procedure: as §2

[7] = tested on: L. jensenii ATCC 25258, 62G, DSM 20557; assay: Phenotypic growth assay (OD600); format: cell-based; details: SDM + 1% (w/v) carbohydrate (0.5% esculin), 37° C., 30 hours; corrected to medium without carbohydrate
Procedure: as §2

L. acidophilus LA-1 = assay: Phenotypic growth assay (OD600); format: cell-based; details: SDM + 1% (w/v) carbohydrate (0.5% esculin), 37° C., 30 hours; corrected to medium without carbohydrate
Procedure: as §2

L. gasseri ATCC 33323 = assay: Phenotypic growth assay (OD600); format: cell-based; details: SDM + 1% (w/v) carbohydrate (0.5% esculin), 37° C., 30 hours; corrected to medium without carbohydrate
Procedure: as §2

L. johnsonii ATCC 33200 = assay: Phenotypic growth assay (OD600); format: cell-based; details: SDM + 1% (w/v) carbohydrate (0.5% esculin), 37° C., 30 hours; corrected to medium without carbohydrate
Procedure: as §2

L. animalis DSM 20602 = assay: Phenotypic growth assay (OD600); format: cell-based; details: SDM + 1% (w/v) carbohydrate (0.5% esculin), 37° C., 30 hours; corrected to medium without carbohydrate
Procedure: as §2

L. helveticus CNRZ32 = assay: Phenotypic growth assay (OD600); format: cell-based; details: SDM + 1% (w/v) carbohydrate (0.5% esculin), 37° C., 30 hours; corrected to medium without carbohydrate
Procedure: as §2

[8] = tested on: L. intestinalis Th4, ATCC 49335, DSM 6629; assay: Phenotypic growth assay (OD600); format: cell-based; details: SDM + 1% (w/v) carbohydrate (0.5% esculin), 37° C., 30 hours; corrected to medium without carbohydrate
Procedure: as §2

[9] = tested on: L. amyloverus ATCC 33620, DSM 20531; assay: Phenotypic growth assay (OD600); format: cell-based; details: SDM + 1% (w/v) carbohydrate (0.5% esculin), 37° C., 30 hours; corrected to medium without carbohydrate
Procedure: as §2

L. fermentum ATCC 14931 = assay: Phenotypic growth assay (OD600); format: cell-based; details: SDM + 1% (w/v) carbohydrate (0.5% esculin), 37° C., 30 hours; corrected to medium without carbohydrate
Procedure: as §2

[10] = growth concentration 0.5% (w/v)

C=CCC(=NOS(=O)(=O)O)S[C@@H]1O[C@H](CO)[C@@H](O)[C@H](O)[C@H]1O (stereo in doubt) [Sinigrin hydrate]
OD600 max (L. acidophilus NCFM [1]; [10]): 0.0

OC[C@H]1O[C@@H](Oc2ccc(O)cc2)[C@H](O)[C@@H](O)[C@@H]1O [Arbutin]
Catabolism based on MS (L. acidophilus NCFM [2]; growth concentration 1% (w/v)): No
Growth (OD600 max class) of L. acidophilus NCFM (L. acidophilus NCFM [1]; SDM + 1% (w/v) carbohydrate (0.5% esculin), 37° C., 30 hours, corrected to medium without carbohydrate): − (“−” signifies OD600 max < 0.1.)
OD600 max (L. acidophilus NCFM [1]; growth concentration 1% (w/v)): 0.0
Growth (OD600 max class) of L. reuteri (ATCC 23272, DSM 20016) [3]: − (“−” signifies OD600 max < 0.1.)
Growth (OD600 max class) of L. crispatus ATCC 33820, DSM 20584 [4]: − (“−” signifies OD600 max < 0.1.)
Growth (OD600 max class) of L. rhanmosus GG (ATCC 53103) [5]: +++ (“+++” signifies OD600 max > 0.6.)
Growth (OD600 max class) of L. plantarum sp. plantarum ATCC 14917, LA70 [6]: +++ (“+++” signifies OD600 max > 0.6.)
Growth (OD600 max class) of L. jensenii ATCC 25258, 62G, DSM 20557 [7]: + (“+” signifies 0.3 > OD600 max > 0.1.)
Growth (OD600 max class) of L. acidophilus LA-1 (L. acidophilus LA-1): − (“−” signifies OD600 max < 0.1.)
Growth (OD600 max class) of L. gasseri ATCC 33323 (L. gasseri ATCC 33323): − (“−” signifies OD600 max < 0.1.)
Growth (OD600 max class) of L. johnsonii ATCC 33200 (L. johnsonii ATCC 33200): + (“+” signifies 0.3 > OD600 max > 0.1.)
Growth (OD600 max class) of L. animalis DSM 20602 (L. animalis DSM 20602): + (“+” signifies 0.3 > OD600 max > 0.1.)
Growth (OD600 max class) of L. helveticus CNRZ32 (L. helveticus CNRZ32): − (“−” signifies OD600 max < 0.1.)
Growth (OD600 max class) of L. intestinalis Th4, ATCC 49335, DSM 6629 [8]: − (“−” signifies OD600 max < 0.1.)
Growth (OD600 max class) of L. amyloverus ATCC 33620, DSM 20531 [9]: − (“−” signifies OD600 max < 0.1.)
Growth (OD600 max class) of L. fermentum ATCC 14931 (L. fermentum ATCC 14931): − (“−” signifies OD600 max < 0.1.)

OCC1=C[C@@H](O)[C@@H]2C=CO[C@@H](O[C@@H]3O[C@H](CO)[C@@H](O)[C@H](O)[C@H]3O)[C@H]12 [Aucubin]
Catabolism based on MS (L. acidophilus NCFM [2]; [10]): No
OD600 max (L. acidophilus NCFM [1]; [10]): 0.0

O=c1c(-c2ccc(O)cc2)coc2cc(O[C@@H]3O[C@H](CO)[C@@H](O)[C@H](O)[C@H]3O)ccc12 [Daidzin]
OD600 max (L. acidophilus NCFM [1]; [10]): 0.0

COc1cc2ccc(=O)oc2c(O[C@@H]2O[C@H](CO)[C@@H](O)[C@H](O)[C@H]2O)c1O [Fraxin]
Catabolism based on MS (L. acidophilus NCFM [2]; [10]): Yes
OD600 max (L. acidophilus NCFM [1]; [10]): 0.4

O=c1c(O[C@@H]2O[C@H](CO)[C@@H](O)[C@H](O)[C@H]2O)c(-c2ccc(O)c(O)c2)oc2cc(O)cc(O)c12 [Isoquercetin]
OD600 max (L. acidophilus NCFM [1]; [10]): 0.0

C[C@@H]1O[C@@H](OC[C@H]2O[C@@H](Oc3c(-c4ccc(O)c(O)c4)oc4cc(O)cc(O)c4c3=O)[C@H](O)[C@@H](O)[C@@H]2O)[C@H](O)[C@H](O)[C@H]1O [Rutin hydrate]
OD600 max (L. acidophilus NCFM [1]; [10]): 0.1

COc1cc(C=O)ccc1O[C@@H]1O[C@H](CO)[C@@H](O)[C@H](O)[C@H]1O [Vanilin 4-O-β-glucoside]
Catabolism based on MS (L. acidophilus NCFM [2]; [10]): Yes
OD600 max (L. acidophilus NCFM [1]; [10]): 1.3

OCc1ccccc1O [salicyl alcohol]
ability of the aglycone per se to support growth (L. acidophilus NCFM [1]; data not shown): unable to support growth
